These results are taken from BindingDB's records for doi:10.1021/acs.biochem.7b00151 (University of Missouri, 2017).

The target of this test is T1, Tyrosine-protein phosphatase non-receptor type 1 [1-322] (Human, UniProt P18031).
T1 construct: 1-322
T1 sequence (P18031 whole entry): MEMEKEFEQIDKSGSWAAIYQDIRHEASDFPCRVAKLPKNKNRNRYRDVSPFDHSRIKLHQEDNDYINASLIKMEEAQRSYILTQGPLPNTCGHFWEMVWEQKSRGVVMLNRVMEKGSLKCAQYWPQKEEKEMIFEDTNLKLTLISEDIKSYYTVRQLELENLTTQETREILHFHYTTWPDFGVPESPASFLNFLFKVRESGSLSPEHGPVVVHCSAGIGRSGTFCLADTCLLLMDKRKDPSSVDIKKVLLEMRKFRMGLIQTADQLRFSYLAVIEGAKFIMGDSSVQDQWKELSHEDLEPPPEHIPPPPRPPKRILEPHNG
The test is described as follows: PTP1B Activity Assay. The following applies: pH 7. As for the experimental part:
The test compounds were introduced into the solutions as stock solutions dissolved in DMSO. After 20−30 s, the amount of PTP1B activity in the assays was assessed by measuring the increase in absorbance at 410 nm as a function of time resulting from the enzyme-mediated conversion of p-NPP to p-nitrophenolate.
Usually IC50 stands for the concentration at which inhibition is half-maximal. Higher therefore signals a need for much substance. As a reminder, the Ki is a measure of affinity in units of concentration, obtained from inhibition or displacement. Read a high Ki as weaker binding. `CC(=O)Nc1ccc(-c2ccc(C)c(N3CC(=O)NS3(=O)=O)c2)cc1` [N-[3'-(1,1-Dioxido-4-oxo-1,2,5-thiadiazolidin-2-yl)-4'-methyl[1,1'-biphenyl]-4-yl]acetamide (5b)] came in with an IC50 of 64 µM and a Ki of 32 µM.
The corresponding values for `Cc1ccc(-c2ccccc2)cc1N1CC(=O)NS1(=O)=O` [5-(4-Methyl[1,1'-biphenyl]-3-yl)-1,2,5-thiadiazolidin-3-one 1,1-Dioxide (2b)] are 77 µM and 38.5 µM.
The like results for `Cc1ccc(-c2ccc(NC(=O)CBr)cc2)cc1N1CC(=O)NS1(=O)=O` [2-Bromo-N-[3'-(1,1-dioxido-4-oxo-1,2,5-thiadiazolidin-2-yl)-4'-methyl[1,1'-biphenyl]-4-yl]-acetamide (5a)] were, in that order, 54 µM and 27 µM.
